# Data as given in patent US8173704B2, “Difluorophenol derivatives and their use” (Bayer Pharma Aktiengesellschaft, priority 2005, dated 2012).
# Columns and labels:
# [1] = tested on: saphenous artery rings; experiment: Vasorelaxant effect in vitro (phenylephrine-contracted artery rings); type: cell-based; details: rabbit saphenous artery rings, contraction induced by phenylephrine
# Method: Rabbits are anesthetized and sacrificed by intravenous injection of thiopental sodium (about 50 mg/kg) and exsanguinated. The saphenous artery is removed and divided into rings 3 mm wide. The rings are mounted singly on in each case a pair of triangular hooks open at the end and made of 0.3 mm-thick special wire (Remanium®). Each ring is placed under an initial tension in 5 ml organ baths with Krebs-Henseleit solution which is at 37° C., is gassed with 95% O2/5% CO2 and has the following composition: NaCl 119 mM; KCl 4.8 mM; CaCl2×2H2O 1 mM; MgSO4×7 H2O 1.4 mM; KH2PO4 1.2 mM; NaHCO3 25 mM; glucose 10 mM; bovine serum albumin 0.001%. The force of contraction is detected with Statham UC2 cells, amplified and digitized via A/D converters (DAS-1802 HC, Keithley Instruments, Munich) and recorded in parallel on chart recorders. Contractions are induced by addition of phenylephrine.
# After several (generally 4) control cycles, the substance to be investigated is added in each further run in increasing dosage, and the height of the contraction achieved under the influence of the test substance is compared with the height of the contraction reached in the last preceding run. The concentration necessary to reduce the contraction reached in the preceding control by 50% is calculated from this (IC50). The standard application volume is 5 μl. The proportion of DMSO in the bath solution corresponds to 0.1%.
# [2] = target: T1, Heme-containing sGC (recombinant soluble guanylate cyclase) (Rattus norvegicus, UniProt P20595); experiment: Stimulation of recombinant soluble guanylate cyclase (sGC) in vitro, heme-containing enzyme; type: biochemical
# T1 construct: made in house; host or cells: baculovirus/Sf9 insect cells
# T1 sequence (P20595 1-619): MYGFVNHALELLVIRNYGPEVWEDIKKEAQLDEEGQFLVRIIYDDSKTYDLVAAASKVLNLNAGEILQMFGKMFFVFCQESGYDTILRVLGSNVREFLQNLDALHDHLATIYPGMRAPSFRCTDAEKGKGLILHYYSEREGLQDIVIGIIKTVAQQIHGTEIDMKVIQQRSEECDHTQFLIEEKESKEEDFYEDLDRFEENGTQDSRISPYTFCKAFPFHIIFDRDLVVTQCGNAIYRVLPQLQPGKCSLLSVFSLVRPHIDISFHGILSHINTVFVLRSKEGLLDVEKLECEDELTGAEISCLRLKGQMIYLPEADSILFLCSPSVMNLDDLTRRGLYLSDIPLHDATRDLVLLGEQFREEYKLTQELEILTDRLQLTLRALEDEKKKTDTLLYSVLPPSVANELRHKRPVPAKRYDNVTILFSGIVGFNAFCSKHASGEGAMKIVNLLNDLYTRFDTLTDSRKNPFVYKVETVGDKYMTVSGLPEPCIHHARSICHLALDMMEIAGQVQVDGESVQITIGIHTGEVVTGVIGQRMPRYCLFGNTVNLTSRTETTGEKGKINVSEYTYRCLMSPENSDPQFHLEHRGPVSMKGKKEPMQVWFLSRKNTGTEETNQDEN
# T1 sequence (P19686 1-690 partner): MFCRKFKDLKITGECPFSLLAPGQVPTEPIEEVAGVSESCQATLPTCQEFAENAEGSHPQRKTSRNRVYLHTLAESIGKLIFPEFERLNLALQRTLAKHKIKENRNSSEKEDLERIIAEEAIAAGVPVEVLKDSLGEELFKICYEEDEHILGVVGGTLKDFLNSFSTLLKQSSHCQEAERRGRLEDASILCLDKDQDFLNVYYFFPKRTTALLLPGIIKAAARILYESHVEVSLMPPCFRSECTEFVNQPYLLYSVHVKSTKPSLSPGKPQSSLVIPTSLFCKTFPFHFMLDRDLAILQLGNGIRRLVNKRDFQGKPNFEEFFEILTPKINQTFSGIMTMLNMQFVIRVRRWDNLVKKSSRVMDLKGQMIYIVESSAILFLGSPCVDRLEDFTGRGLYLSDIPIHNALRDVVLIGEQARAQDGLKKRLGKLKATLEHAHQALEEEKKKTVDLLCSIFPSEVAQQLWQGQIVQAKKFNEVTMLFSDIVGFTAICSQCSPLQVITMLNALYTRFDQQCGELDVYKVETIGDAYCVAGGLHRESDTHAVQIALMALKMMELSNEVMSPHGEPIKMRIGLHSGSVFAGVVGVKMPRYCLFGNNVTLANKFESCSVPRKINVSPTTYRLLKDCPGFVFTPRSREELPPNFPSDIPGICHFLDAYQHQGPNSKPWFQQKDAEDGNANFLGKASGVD
# Excerpt: Hoenicka, E. M. Becker, H. Apeler, T. Sirichoke, H. Schroeder, R. Gerzer and J.-P. Stasch, “Purified soluble guanylyl cyclase expressed in a baculovirus/Sf9 system: Stimulation by YC-1, nitric oxide, and carbon oxide”, J. Mol. Med. 77 (1999), 14-23. The heme-free guanylate cyclase is obtained by adding Tween 20 to the sample buffer (0.5% in the final concentration).
# (§1) The activation of sGC by a test substance is reported as n-fold stimulation of the basal activity.
# [3] = target: T2, Heme-free sGC (recombinant soluble guanylate cyclase) (Rattus norvegicus, UniProt P20595); experiment: Stimulation of recombinant soluble guanylate cyclase (sGC) in vitro, heme-free enzyme; type: biochemical
# T2 construct: made in house; host or cells: baculovirus/Sf9 insect cells
# T2 sequence (P20595 1-619): T1 sequence (P20595 1-619)
# T2 sequence (P19686 1-690 partner): T1 sequence (P19686 1-690 partner)
# Method: Investigations on the stimulation of recombinant soluble guanylate cyclase (sGC) by the compounds according to the invention with and without sodium nitroprusside, and with and without the heme-dependent sGC inhibitor 1H-1,2,4-oxadiazole-(4,3a)-quinoxalin-1-one (ODQ) are carried out by the method described in detail in the following reference: M. Hoenicka, E. M. Becker, H. Apeler, T. Sirichoke, H. Schroeder, R. Gerzer and J.-P. Stasch, “Purified soluble guanylyl cyclase expressed in a baculovirus/Sf9 system: Stimulation by YC-1, nitric oxide, and […]”, J. Mol. Med. 77 (1999), 14-23. The heme-free guanylate cyclase is obtained by adding Tween 20 to the sample buffer (0.5% in the final concentration).
# as §1
# [4] = 0.001 μM Example 13 + 10 μM ODQ
smiles,measurement,setting,value
"O=C(O)CCCCC(/C=C\c1cc(F)ccc1OCc1ccc(-c2ccc(C(F)(F)F)cc2)cc1)Cc1cc(F)c(O)c(F)c1 (single isomer, unassigned) [Example 7, Z-6-(3,5-Difluoro-4-hydroxybenzyl)-8-[5-fluoro-2-(4′-trifluoromethylbiphenyl-4-ylmethoxy)phenyl]oct-7-enoic acid]",IC50,[1],2600 nM
"O=C(O)CCCCC(/C=C\c1cc(F)ccc1OCc1ccc(-c2ccc(C(F)(F)F)cc2)cc1)Cc1cc(F)c(O)c(F)c1 (single isomer, unassigned) [Example 6, Z-6-(3,5-Difluoro-4-hydroxybenzyl)-8-[5-fluoro-2-(4′-trifluoromethylbiphenyl-4-ylmethoxy)phenyl]oct-7-enoic acid]",IC50,[1]; Oryctolagus cuniculus,2700 nM
"CC(C)(C)c1ccc(COc2ccccc2/C=C/C(CCc2ccc(C(=O)O)cc2)Cc2cc(F)c(O)c(F)c2)cc1 (single isomer, unassigned) [Example 13, E4-[5-[2-(4-tert-Butylbenzyloxy)phenyl]-3-(3,5-difluoro-4-hydroxybenzyl)pent-4-enyl]benzoic acid]",IC50,[1],24.5 nM
same,"Stimulation (n-fold) of heme-containing sGC, Basal",[2]; 0.001 μM Example 13,1.7 n-fold
same,"Stimulation (n-fold) of heme-containing sGC, +0.1 μM DEA/NO",[2]; 0.001 μM Example 13 + 0.1 μM DEA/NO,26.3 n-fold
same,"Stimulation (n-fold) of heme-containing sGC, +10 μM ODQ",[2]; [4],37.5 n-fold
same,"Stimulation (n-fold) of heme-containing sGC, Basal",[2]; 0.01 μM Example 13,6.7 n-fold
same,"Stimulation (n-fold) of heme-containing sGC, +0.1 μM DEA/NO",[2]; 0.01 μM Example 13 + 0.1 μM DEA/NO,31.2 n-fold
same,"Stimulation (n-fold) of heme-containing sGC, +10 μM ODQ",[2]; 0.01 μM Example 13 + 10 μM ODQ,38.8 n-fold
same,"Stimulation (n-fold) of heme-containing sGC, Basal",[2]; 0.1 μM Example 13,19.2 n-fold
same,"Stimulation (n-fold) of heme-containing sGC, +0.1 μM DEA/NO",[2]; 0.1 μM Example 13 + 0.1 μM DEA/NO,40.2 n-fold
same,"Stimulation (n-fold) of heme-containing sGC, +10 μM ODQ",[2]; 0.1 μM Example 13 + 10 μM ODQ,43.8 n-fold
same,"Stimulation (n-fold) of heme-containing sGC, Basal",[2]; 1 μM Example 13,24.2 n-fold
same,"Stimulation (n-fold) of heme-containing sGC, +0.1 μM DEA/NO",[2]; 1 μM Example 13 + 0.1 μM DEA/NO,43.2 n-fold
same,"Stimulation (n-fold) of heme-containing sGC, +10 μM ODQ",[2]; 1 μM Example 13 + 10 μM ODQ,52.2 n-fold
same,"Stimulation (n-fold) of heme-containing sGC, Basal",[2]; 10 μM Example 13,36.2 n-fold
same,"Stimulation (n-fold) of heme-containing sGC, +0.1 μM DEA/NO",[2]; 10 μM Example 13 + 0.1 μM DEA/NO,62.0 n-fold
same,"Stimulation (n-fold) of heme-containing sGC, +10 μM ODQ",[2]; 10 μM Example 13 + 10 μM ODQ,63.7 n-fold
same,Effect of combination with the NO donor DEA/NO on sGC stimulation,[2]; combination with DEA/NO,no synergistic effect
same,Effect of the heme-dependent sGC inhibitor ODQ on the sGC activation,"[2]; with ODQ, effect is in fact increased",not blocked
same,"Stimulation (n-fold) of heme-free sGC, Basal",[3]; 0.001 μM Example 13,4.1 n-fold
same,"Stimulation (n-fold) of heme-free sGC, +10 μM ODQ",[3]; [4],4.0 n-fold
same,"Stimulation (n-fold) of heme-free sGC, Basal",[3]; 0.01 μM Example 13,30.6 n-fold
same,"Stimulation (n-fold) of heme-free sGC, +10 μM ODQ",[3]; 0.01 μM Example 13 + 10 μM ODQ,27.1 n-fold
same,"Stimulation (n-fold) of heme-free sGC, Basal",[3]; 0.1 μM Example 13,94.4 n-fold
same,"Stimulation (n-fold) of heme-free sGC, +10 μM ODQ",[3]; 0.1 μM Example 13 + 10 μM ODQ,88.6 n-fold
same,"Stimulation (n-fold) of heme-free sGC, Basal",[3]; 1 μM Example 13,122.8 n-fold
same,"Stimulation (n-fold) of heme-free sGC, +10 μM ODQ",[3]; 1 μM Example 13 + 10 μM ODQ,118.5 n-fold
same,"Stimulation (n-fold) of heme-free sGC, Basal",[3]; 10 μM Example 13,126.3 n-fold
same,"Stimulation (n-fold) of heme-free sGC, +10 μM ODQ",[3]; 10 μM Example 13 + 10 μM ODQ,118.4 n-fold
"CC(C)(C)c1ccc(COc2ccccc2/C=C/C(CCc2ccc(C(=O)O)cc2)Cc2cc(F)c(O)c(F)c2)cc1 (single isomer, unassigned) [Example 14, E-4-[5-[2-(4-tert-Butylbenzyloxy)phenyl]-3-(3,5-difluoro-4-hydroxybenzyl)pent-4-enyl]benzoic acid]",IC50,[1],1220 nM
"O=C(O)CCCCC(/C=C/c1cc(F)ccc1OCc1ccc(-c2ccc(C(F)(F)F)cc2)cc1)Cc1cc(F)c(O)c(F)c1 (single isomer, unassigned) [Example 5, E-6-(3,5-Difluoro-4-hydroxybenzyl)-8-[5-fluoro-2-(4′-trifluoromethylbiphenyl-4-ylmethoxy)phenyl]oct-7-enoic acid]",IC50,[1],300 nM
"O=C(O)CCCCN(CCc1cc(F)ccc1OCc1ccc(-c2ccc(C(F)(F)F)cc2)cc1)Cc1cc(F)c(O)c(F)c1 [Example 18, 5-{(3,5-Difluoro-4-hydroxybenzyl)-[2-(5-fluoro-2-{[4′-(trifluoromethyl)biphenyl-4-yl]methoxy}phenyl)ethyl]amino}pentanoic acid]",IC50,[1]; Oryctolagus cuniculus,43 nM
"O=C(O)CCCCC(/C=C/c1cc(F)ccc1OCc1ccc(-c2ccc(C(F)(F)F)cc2)cc1)Cc1cc(F)c(O)c(F)c1 (single isomer, unassigned) [Example 4, E-6-(3,5-Difluoro-4-hydroxybenzyl)-8-[5-fluoro-2-(4′-trifluoromethylbiphenyl-4-ylmethoxy)phenyl]oct-7-enoic acid]",IC50,[1],960 nM
"O=C(O)CCCCC(/C=C/c1cc(F)ccc1OCc1ccccc1Cl)Cc1cc(F)c(O)c(F)c1 (single isomer, unassigned) [Example 8, E-8-[2-(2-Chlorobenzyloxy)-5-fluorophenyl]-6-(3,5-difluoro-4-hydroxybenzyl)oct-7-enoic acid]",IC50,[1]; Oryctolagus cuniculus,647 nM
